Source: patent US7157256B2, “Method for producing para-hydroxystyrene and other multifunctional aromatic compounds using two-phase extractive fermentation” (E. I. du Pont de Nemours and Company, priority 2003, dated 2007)
Several values for one entry are separate records, joined by “and”; a condition that tells them apart may be missing. Identical values can stand only once. Entries after “also recorded” stand apart in the source; their conditions may differ.

Key:
E. coli TY1 (DGL430) = test: Toxicity testing of organic solvents toward E. coli using agar cultures; format: cell-based; details: for % CFU 1 Sample 2 / % CFU Sample 1 / % CFU Sample 3: 5 mL solvent on inoculated LB agar plate, 30° C., CFU as percentage of control plates; for toxicity to E. coli in words: agar plate study
Experimental: This study was done using E. coli TY1 (DGL430), as described in Example 1. A stock culture of this strain was prepared in 50% glycerol and stored at −20° C. This stock culture (10 μL) was used to inoculate a 14 mL Falcon™ tube (BD Biosciences, Bedford, Mass.) containing 5 mL of LB medium, consisting of Bacto-tryptone (10 g/L), Bacto-yeast extract (5 g/L), and NaCL (10 g/L) adjusted to pH 7.5 with NaOH, and supplemented with tetracycline (10 μg/mL). This culture was incubated at 34° C. and 250 rpm overnight in an incubator shaker until an OD600 of between 1.0 and 2.0 was obtained. Dilutions of this culture were spread onto LB agar plates. The appropriate dilution was determined by experimentation to obtain between 100 to 200 colonies per plate. The solvents (5 mL) were filtered through a 0.2 μm filter onto the inoculated agar plates. All the solvents were tested in triplicate.
The plates were incubated overnight at 30° C. in a vented incubator located in a chemical fume hood. The colonies formed were counted after 24 and 48 h. The colony forming units (CFUs) obtained with each solvent were compared to those of the control plates and plotted in FIG. 1 as a percentage versus the log P value for the solvent (P values obtained from Hansch et al., Exploring QSAR: Hydrophobic, Electronic and Steric Constants, American Chemical Society, Washington, D.C., 1995). […] The error bars in the figure represent the range of the data. Cell growth on the agar medium was characterized by the presence of both distinct and non-distinct colony formations, which affected the precision of the colony counts. In the presence of some of the solvents tested, growth continued between 24 and 48 h, while with other solvents, no further growth was observed after 24 h.

[1] = P values obtained from Hansch et al. 1995; cited from earlier work
[2] = Extraction of CA into organic phase, two-phase flask fermentation; format: physicochemical
Experimental: The strain used in this study was E. coli WWQ51.1, as described in Example 3. The conditions were similar to those described in Example 3. Eight test cultures were inoculated; six contained 20 mL of 2-undecanone, the other two contained 20 mL of 1-undecanol. A 10% w/v solution of pHS in propylene glycol (0.5 mL), obtained from Sigma-Aldrich, Milwaukee, Wis., was added to two of the cultures containing 2-undecanone, as specified in Table 7.
The cultures were incubated in 250 mL baffled flasks at 35° C. and 300 rpm for 24 h in an incubator shaker. After this time, a sample of the aqueous phase was withdrawn and the pH, OD550, and the concentration of the fermentation products were measured, as described supra. The organic phase was also sampled and the concentration of CA and pHS were determined using HPLC, as described supra.
In this study, the pH decreased to low values and a significant amount of CA was extracted into both organic solvents tested. The amount of pHS produced was low, probably because of its poor stability at low pH. As shown by the data in Table 9, the amount of CA extracted into the organic phase was very dependent on the pH of the medium. This pH dependence results because the fully protonated species is the form extracted into the organic phase. The ionized acid form is very water-soluble and is not extracted into the organic phase. Therefore, the extractive fermentation of acidic compounds such as CA and pHCA is favored at low pH, where the acid exists primarily in the unionized form.

E. coli strain BNT511 = test: Effect of organic solvents on the growth of E. coli, shake flasks; format: cell-based; details: for OD 550: 10 mL solvent in 30 mL medium
Text: E. coli strain BNT511 was used in this study. This strain is a tyrosine overproducing strain derived from E. coli strain NST 74 (ATCC No. 31884), which was obtained from the American Type Culture Collection (ATCC) (Manassas, Va.). Strain BNT511 is deposited with the American Type Culture Collection under the terms of the Budapest Treaty on the International Recognition of the Deposit of Microorganisms for the Purposes of Patent Procedure and has been assigned a depository designation of PTA-4314. E. coli strain BNT511 was obtained as follows. A culture of E. coli strain NST 74 was grown overnight at 37° C. in three milliliters of M9 medium, prepared as follows. A solution of M9 salts buffer consisting of KH2PO4 (3 g/L), Na2HPO4 (6 g/L), NaCl (0.5 g/L), and NH4Cl (1 g/L), was prepared and the pH was adjusted to 7.4. This M9 salts buffer was autoclaved and then the following solutions, each sterilized separately by filtration (glucose) or autoclaving, were added to give the concentrations given in parentheses MgSO4 (0.24 g/L), glucose (0.2%), CaCl2 (0.011 g/L), and yeast extract (1 g/L). After growth, the culture was diluted by a factor of 10^3 to 10^6 in M9 salts buffer. Then, 100 μL of each dilution was plated on M9+1% glucose agar containing […] of 3-fluorotyrosine and the plates were incubated at 37° C. After 18 h, growth was observed only on the plate not containing 3-fluorotyrosine. Plates containing 3-fluorotyrosine were incubated an additional 24 h, after which time, several isolates were identified. One NST 74-derived isolate was obtained from each of the 150 and 450 mg/mL 3-fluorotyrosine plates. Individual isolates were propagated on M9+1% glucose agar containing 0, 50, 150, or 250 mg/mL 3-fluorotyrosine. One of these two isolates was designated as BNT511.
E. coli strain BNT511 was grown in a medium containing KH2PO4 (0.15 g/L), Na2HPO4 (0.35 g/L), (NH4)2 SO4 (3 g/L), MgSO4.7H2O (0.3 g/L), yeast extract (0.5 g/L), MOPS (15.6 g/L), and glucose (10 g/L), adjusted to pH 6.8. A seed culture, taken from an active culture that grew in a fermentor and was diluted to 0.3 OD at 550 nm, was used to inoculate 30 mL of culture medium in 250 mL baffled flasks. Ten milliliters of the solvent to be tested, either 1-undecanol (98%, obtained from Aldrich) or 2-undecanone (98%, obtained from Aldrich), was added to the flask and the flasks were incubated at 35° C. and 300 rpm for 22 h in an incubator shaker. A flask without an organic solvent added served as the control. This experiment was run in duplicate. Samples of the aqueous culture media were removed at various times and the pH and the OD550 were measured. As shown by the results given in Table 2, the presence of the organic solvents tested had no significant effect on the growth of E. coli. However, the results obtained with 2-undecanone in these studies were not consistent. […] We believe that this variability was caused by variations in the purity of this solvent.

[3] = 2 h, 35° C., 300 rpm, duplicate flasks

SMILES | % CFU 1 Sample 2 (E. coli TY1 (DGL430)) | % CFU Sample 1 (E. coli TY1 (DGL430)) | % CFU Sample 3 (E. coli TY1 (DGL430)) | Log P [1] | toxicity to E. coli in words (E. coli TY1 (DGL430)) | other results
CCCOC(=O)c1ccccc1 [Propyl benzoate] | 26% | 9% | 0.9% | – | – | –
c1ccc(COCc2ccccc2)cc1 [Dibenzyl ether] | 5% | 1.5% | 0% | 3.1 | – | –
CCCCCCCCCCCC(C)=O [2-Tridecanone] | 115% | 100% | 87% | 4.95 | relatively nontoxic to E. coli | –
O=C(O)C=Cc1ccccc1 [CA, cinnamic acid] | – | – | – | – | – | CA Org/CA Aq ([2]; Flask 1, 2-undecanone 20 mL/flask, pH 5.38, 24 h): 3.55; CA Org/CA Aq ([2]; Flask 2, 2-undecanone, pH 4.5): 17.00; CA Org/CA Aq ([2]; Flask 3, 2-undecanone, pH 5.5): 1.43; CA Org/CA Aq ([2]; Flask 4, 2-undecanone, pH 5.4): 2.54; CA Org/CA Aq ([2]; Flask 5, 2-undecanone, pH 4.8): 8.08; CA Org/CA Aq ([2]; Flask 6, 2-undecanone, pH 5.7): 1.10; CA Org/CA Aq ([2]; Flask 7, 1-undecanol, pH 5.7): 2.10; CA Org/CA Aq ([2]; Flask 8, 1-undecanol, pH 5.71): 2.15
CCCCCCCCCC(C)=O [2-undecanone] | 11% | 11% | 11% | 3.91 | significantly inhibit growth | growth inhibition / toxicity to E. coli of some lots (E. coli strain BNT511; 2-undecanone from some suppliers and lots, ascribed to impurities): found to inhibit growth; also recorded: toxic to E. coli due to impurities; OD 550 (E. coli strain BNT511; [3]): 1.004; OD 550 (E. coli strain BNT511; 4.2 h): 1.88; OD 550 (E. coli strain BNT511; 6 h): 6.3 and 6.28; OD 550 (E. coli strain BNT511; 22 h): 15.2 and 12.3
CCCCC(=O)c1ccccc1 [1-Phenyl-1-pentanone] | 62% | 33% | 0% | 3.33 | – | –
CCCCCCCCCC(=O)OC [Methyl decanoate] | 109% | 73% | 44% | 4.41 | relatively nontoxic to E. coli | –
CCCCCCCCC(C)=O [2-Decanone] | 0% | 0% | 0% | 3.39 | – | –
CCCCCCCCCCCO [1-undecanol] | – | – | – | – | – | OD 550 (E. coli strain BNT511; [3]): 1.428 and 1.456; OD 550 (E. coli strain BNT511; 4.2 h): 1.96 and 2.14; OD 550 (E. coli strain BNT511; 6 h): 6.02 and 6.7; OD 550 (E. coli strain BNT511; 22 h): 19.1 and 15.7
CC(C)CCOCCC(C)C [Diisopentyl ether] | 39% | 13% | 0% | 3.96 | – | –
